Experimental data reported in patent publication US20080255213A1, “THIAZOLIDINONE AMIDES, THIAZOLIDINE CARBOXYLIC ACID AMIDES, AND SERINE AMIDES, INCLUDING POLYAMINE CONJUGATES THEREOF, AS SELECTIVE ANTI-CANCER AGENTS” (University of Tennessee Research Foundation, priority 2007, published 2008).

Key:
[1] = test system: fibroblast cell line; assay: Sulforhodamine B (SRB) cytotoxicity assay, fibroblast control; assay type: cell-based; details: 48 h exposure, control for selectivity, value ± standard error, read-out: IC50 ± SEM Fibroblast (converted)
Protocol: (§1) Cytotoxicity of these newly synthesized compounds was examined in two human melanoma cell lines (SK-MEL-188 and WM-164) and in a fibroblast cell line. Activity on fibroblast cells was used as a control to determine the selectivity of these compounds against melanoma. Standard sulforhodamine B (SRB) assay was used. Cells were exposed to a wide range of concentrations for 48 h in round-bottom 96-well plates. Cells were fixed with 10% trichloroacetic acid and washed five times with water. After cells were air-dried overnight and stained with SRB solution, total proteins were measured at 560 nm with a plate reader. IC50 (i.e., concentration which inhibited cell growth by 50% of DMSO-treated controls) values were obtained by nonlinear regression analysis with GraphPad Prism (GraphPad Software, San Diego, Calif.).
(§2) The ability of thiazolidine derivatives to inhibit the growth of two melanoma cancer cell lines and fibroblast cells is summarized in Table 1. […] At this early stage, all compounds were used as a diastereomeric mixture if they contain chiral centers in order to select the most promising compounds for further development.

[2] = test system: SK-MEL-188 melanoma cell line; assay: Sulforhodamine B (SRB) cytotoxicity assay, SK-MEL-188; assay type: cell-based; details: Homo sapiens, 48 h exposure, diastereomeric mixtures, value ± standard error, read-out: IC50 ± SEM SK-MEL-188 (converted)
Protocol: as §1, §2

[3] = test system: melanoma cells; assay: SRB cytotoxicity assay, statements not tied to one cell line; assay type: cell-based, human
Protocol: as §1, §2

[4] = test system: WM-164 melanoma cell line; assay: Sulforhodamine B (SRB) cytotoxicity assay, WM-164; assay type: cell-based; details: Homo sapiens, WM164, 48 h exposure, diastereomeric mixtures, value ± standard error, read-out: IC50 ± SEM WM-164 (converted)
Protocol: as §1, §2

`CNC(=O)c1cc(Oc2ccc(NC(=O)Nc3ccc(Cl)c(C(F)(F)F)c3)cc2)ccn1` [Sorafenib, reference compound] was tested, and the IC50 [1] was > 100 µM, the IC50 [2] was 4.3 ± 0.2 µM and the “selectivity: ratio of IC50 values for fibroblast cells over melanoma cells” value ([3]; fibroblast IC50 / melanoma IC50) was > 25. For the same molecule, the “potency against melanoma cells relative to compound 317 (times less potent)” value ([3]; versus compound 317) was “about 10 times” and the IC50 [4] was 4.7 ± 0.3 µM.
